Test results: patent publication US20230015595A1, “USE OF VALPROIC ACID FOR REDUCING POST-OPERATIVE SCARRING FOLLOWING A GLAUCOMA SURGERY” (SANTEN PHARMACEUTICAL CO., LTD., priority 2019, published 2023)
“Also recorded” adds a separate entry of the source.

Tests used:
[1] = tested on: rabbit model of microshunt implant surgery; test: Rabbit model of microshunt implant surgery, MMC high/low dose and low dose MMC with VPA; format: in vivo
Method: The rabbit model of microshunt implant surgery using the PRESERFLO® MicroShunt (Santen) was performed and treated under these conditions: • (a) 0.4 mg/ml MMC via sponge for 1 min; • (b) 0.1 mg/ml MMC via sponge for 1 min; and • (c) 0.1 mg/ml MMC via sponge for 1 min in combination with a total of 11 injections of 300 μg/ml VPA, immediately after surgery, and once daily for first 7 days, followed by injections on days 10, 14 and 21 post-surgery.
The rabbit eyes were then evaluated.

[2] = tested on: primary rabbit conjunctival fibroblasts; test: Type I collagen (Col1a1) expression and cell growth in primary rabbit conjunctival fibroblasts; format: cell-based
Method: For application in the rabbit model of microshunt implant surgery (PRESERFLO® MicroShunt, Santen), the dosage of VPA to be used was determined using primary rabbit conjunctival fibroblasts for (1) effectiveness in reducing type I collagen, and (2) non-toxicity on cell growth, as shown in FIG. 6.

[3] = tested on: mouse model of conjunctival scarring; test: Mouse model of conjunctival scarring, quantitative multiphoton imaging and histology of collagen; format: in vivo
Text: The conjunctiva was dissected to reveal the sclera where an incision was made into the anterior chamber. The resulting fistula allowed aqueous humor to exit into and underneath the conjunctiva. The accumulated fluid underneath the sutured conjunctiva was observed as a conjunctival bleb. To determine whether VPA has the capacity to protect collagen architecture, quantitative multiphoton imaging as described in Xu S et al (J. Hepatol., 2014, 61(2):260-269) was used to measure collagen properties in the mouse model of conjunctival scarring treated with VPA. The onset of scarring, as indicated by peak production of collagen mRNA, was measured on day 7 post-surgery. The mature scar was measured on day 14 post-surgery when collagen mRNA production was subdued. To study the impact of VPA on the collagen architecture during the onset of scarring on day 7, mice were injected with 300 μg/ml VPA directly into the operated area immediately after surgery and on day 2. To determine the effect of VPA in the mature scar on day 14, mice were injected as above, with an additional injection on day 7. By this method, it could be readily observed in histologically-stained sections as well as multiphoton scans that collagen fibers in the VPA-treated eyes were thinner than those in the PBS-treated control eyes. Exemplary collagen fibers showing the thinning effect of VPA are indicated by the white arrowheads in FIG. 2.

[4] = tested on: rabbit model of microshunt implant surgery; test: Rabbit model of microshunt implant surgery (PRESERFLO MicroShunt), VPA alone vs PBS; format: in vivo
Method: The rabbit model of microshunt implant surgery using the PRESERFLO® MicroShunt (Santen) was performed with a total of 11 injections of 300 μg/ml VPA, immediately after surgery, and once daily for first 7 days, followed by injections on days 10, 14 and 21 post-surgery. The rabbit eyes were evaluated by slit lamp photography (FIG. 7).
Confocal microscopy was used to correlate bleb appearance and function. It is known that significant positively correlating features include cyst size and vasculature density/tortuosity.

[5] = tested on: human Tenons conjunctival fibroblasts; test: Type I collagen (Col1a1) expression in human Tenons conjunctival fibroblasts; format: cell-based; conditions: human Tenons conjunctival fibroblasts from three donors
Method: Likewise, for application in human, the dosage of VPA to be used was determined as in the rabbit model for effectiveness in reducing type I collagen. The effect of VPA on type I collagen expression in human Tenons conjunctival fibroblasts derived from three independent donors was investigated, and the results are as shown in FIG. 6B.

[6] = 300 μg/ml VPA, 28 days post-surgery, vs PBS
[7] = 300 μg/ml VPA, day 28 rabbit tissues
[8] = 300 μg/ml VPA, day 28 rabbit tissues, vs PBS controls

For `CCCC(CCC)C(=O)O` [VPA, valproic acid], the “collagen fibers around implant tip (picrosirius red, polarised light)” value ([1]; VPA 300 μg/mL with 0.1 mg/ml MMC (condition c)) was “reduced the presence of the thick fibers encapsulating the implant”, the “lowest concentration effective in significantly reducing Col1a1 expression without disrupting cell proliferation” value [2] was 300 µg/mL and the “collagen fibers in histologically-stained sections and multiphoton scans” value ([3]; 300 μg/ml VPA injected into operated area, vs PBS-treated control eyes) was “thinner”. For the same molecule, the “number of collagen fibers per mm^2” value ([3]; 300 μg/ml VPA, both time points (days 7 and 14), vs PBS) was “significantly reduced”, the “Collagen Reticulation Index (CRI)” value ([3]; 300 μg/ml VPA, day 7, vs PBS treatment) was “significant reduction” and the “Collagen Reticulation Index (CRI)” value ([3]; 300 μg/ml VPA, day 14 mature scar) was “lack of effect”. The “collagen area ratio (CAR)” value ([3]; 300 μg/ml VPA, days 7 and 14 post-surgery, vs PBS) was “significantly reduced”, the “collagen thickness (quantitative multiphoton analyses)” value ([3]; 300 μg/ml VPA, operated conjunctival sections, vs PBS) was “reduced” and the “collagen reticulation (measured as CRI and CARD)” value ([3]; 300 μg/ml VPA, post-operative conjunctiva) was “not induced”. The “collagen fiber density (CFD)” value ([3]; 300 μg/ml VPA, vs PBS controls) was “lack of significant difference”, the “bleb collagen fiber packing (confocal microscopy)” value ([4]; 300 μg/ml VPA, 28 days post-surgery, PBS tightly-packed) was “loosely packed collagen fibers” and the “bleb vasculature (confocal microscopy)” value ([4]; 300 μg/ml VPA, 28 days post-surgery, PBS tortuous) was “straight”. The “bleb collagen characteristics (histology)” value ([4]; 300 μg/ml VPA, 28 days post-surgery, compared to normal tissue) was “thinner and similarly organized array of collagen fibers”, the “COL1A1 and fibronectin fibers (immunofluorescent staining)” value [4, 6] was “thinner and more diffusely distributed fibers” and the “bleb cysts (confocal microscopy)” value [4, 6] was “large cysts”. For the same molecule, the Smad6 expression [4, 7] was “significantly induced”, the Vegfa expression [4, 7] was “significantly elevated” and the collagen transcript expression [4, 8] was “significantly reduced”. For the same molecule, the fibronectin transcript expression [4, 8] was “significantly reduced”, the “time a filtering bleb was maintained (slit lamp)” value ([4]; 11 injections of 300 μg/ml VPA, PBS bleb failed by day 14) was “at least 28 days” and the “lowest concentration effective in significantly reducing Col1a1 expression without disrupting cell proliferation” value [5] was 300 µg/mL.

In the case of `CO[C@@]12[C@H](COC(N)=O)C3=C(C(=O)C(C)=C(N)C3=O)N1C[C@@H]1N[C@@H]12` [MMC, mitomycin C], the “mRNA expression of Col1a1” value ([1]; 0.1 mg/ml MMC, day 28 rabbit tissues, vs 0.4 mg/ml MMC and 0.1 mg/ml MMC+VPA, n=5) was “significantly higher”, the “bleb cysts (confocal microscopy)” value ([1]; rabbit, in vivo) was “large cysts; also recorded: smaller cysts” and the “bleb morphology (slit lamp)” value ([1]; rabbit, in vivo) was “starkly avascular and cystic bleb; also recorded: less avascular and mildly cystic bleb”. The “collagen fibers around implant tip (picrosirius red, polarised light)” value ([1]; rabbit, in vivo) was “thick collagen fibers encapsulating the implant”.
